The text below walks through data of patent US5281604A, “Angiotensin II receptor blocking 2,3,6-substituted quinazolinones” (American Cyanamid Company, priority 1993, dated 1994).

This assay deals with T1, Angiotensin II Receptor (Bos taurus, UniProt P25104).
T1 construct: beef adrenal glands are processed as follows: fresh adrenal glands received on crushed ice are cleaned of fatty tissues; tissue Maxwell-Cohen (local slaughter house); host or cells: beef adrenal cortex, microsomal membranes (100,000×g pellet)
T1 sequence (P25104 1-359): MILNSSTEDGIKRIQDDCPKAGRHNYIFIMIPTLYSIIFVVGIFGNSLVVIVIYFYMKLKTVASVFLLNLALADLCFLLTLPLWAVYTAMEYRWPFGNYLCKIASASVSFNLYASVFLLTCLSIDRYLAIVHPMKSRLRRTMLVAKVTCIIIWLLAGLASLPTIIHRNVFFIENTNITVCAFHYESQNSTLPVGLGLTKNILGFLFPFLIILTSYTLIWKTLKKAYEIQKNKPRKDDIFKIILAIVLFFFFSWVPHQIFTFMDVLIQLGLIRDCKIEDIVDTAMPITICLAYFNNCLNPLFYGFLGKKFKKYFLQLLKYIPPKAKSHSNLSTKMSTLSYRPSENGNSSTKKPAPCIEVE
The assay is described as follows: Receptor Binding Assay: displacement of [125I](Sar1,Ile8)AngII from beef adrenal cortex microsomal membranes. Conditions: 60 min room temperature. The source says: Beef adrenals are obtained from a local slaughter house (Maxwell-Cohen).
[^125 I](Sar^1,Ile^8)AngII, S.A. 2200 Ci/mmole, is purchased from Dupont (NEN®, Boston, Mass.). All unlabeled AngII analogs, Dimethylsulfoxide (DMSO), nucleotides, bovine serum albumin (BSA) are purchased from Sigma Chemical Co., St. Louis, Mo. U.S.A.
Approximately sixteen (16) to twenty (20) beef adrenal glands are processed as follows: fresh adrenal glands received on crushed ice are cleaned of fatty tissues and the tough membranes encapsulating the glands are removed and discarded. The brownish tissue forming the adrenal cortex is scraped off and finely minced with scissors before homogenization. Care is taken to avoid contamination with medullary tissue during dissection. The scraped cortices are suspended in twenty volumes of an ice-cold buffer medium consisting of 10 mM Tris.HCl (pH 7.4 at 22° C.) and containing 1.0 mM EDTA and 0.2M sucrose. Unless otherwise indicated, all subsequent operations are done at 4° C. […] The homogenate is centrifuged first at low speed (3,000×g) for 10 min. The resulting pellet is discarded and the supernatant fluid recentrifuged at 10,000×g for 15 minutes to give a P2 pellet. This P2 pellet is discarded and the liquid phase is carefully decanted off in clean centrifuge tubes and recentrifuged at high speed (100,000×g) for 60 min. The translucent final pellet is harvested and combined in a small volume (20-50.0 ml) of 50.0 mM Tris.HCl buffer, pH 7.2. A 100 ul aliquot is withdrawn and the protein content of the preparation is determined by the Lowry's method (Lowry, O. H., Rosebrough, N. F., Farr, A. L. and Randall, R. J., Protein measurement with Folin phenol reagent. J. Biol. Chem., […], 265-275, 1951). The pelleted membrane is reconstituted in 50.0 mM Tris.HCl buffer containing 0.1 mM of phenylmethylsulfonyl fluoride (PMSF) to give approximately a protein concentration of 2.5 mg per ml of tissue suspension. The membrane preparation is finally aliquoted in 1.0 ml volumes and stored at -70° C. until use in the binding assays.
The binding of [^125 I](Sar^1.Ile^8)AngII to microsomal membranes is initiated by the addition of reconstituted membranes (1:10 vols.) in freshly made 50.0 mM Tris.HCl buffer, pH 7.4 containing 0.25% heat inactivated bovine serum albumin (BSA): 80 ul membrane protein (10 to 20 ug/assay) to wells already containing 100 ul of incubation buffer (as described above) and 20 ul [^125 I](Sar^1,Ile^8)AmgII (Specific Activity, 2200 Ci/mmole) Non-specific binding is measured in the presence of 1.0 uM unlabeled (Sar^1,Ile^8)AngII, added in 20 ul volume. Specific binding for [^125 I](Sar^1,Ile^8) AngII is greater than 90%. In competition studies, experimental compounds are diluted in dimethylsulfoxide (DMSO) and added in 20 ul to wells before the introduction of tissue membranes. This concentration of DMSO is found to have no negative effects on the binding of [^ 125I] (Sar^1,Ile^8) AngII to the membranes. Assays are performed in triplicate. The wells are left undisturbed for 60 min. at room temperature. […] Presoaking the filter sheet in 0.1% polyethyleneimine in normal saline (PEI/Saline) greatly reduces the radioactivity retained by the filter blanks. […] The filters are removed from the filter grid and counted in a Parkard® Cobra Gamma Counder for 1 min. […] The binding data are analyzed by the non-linear interactive "LUNDON-1" program (LUNDON SOFTWARE Inc., Cleveland, Ohio U.S.A.).

Molecule `CCCCc1nc2ccc([C@H]3OC[C@H]4[C@@H]3ON3[C@@H]4CCC3(C)C)cc2c(=O)n1Cc1ccc(-c2ccccc2-c2nnn[nH]2)cc1` (relative stereo) [Example 7, (1α, 3aα, 8aβ, 8bα)-2-Butyl-6-(octahydro-6,6-dimethylfuro[3,4-d]pyrrolo[1,2-b]isoxazol-1-yl)-3-[[2'-(1H-tetrazol-5-yl)[1,1'-biphenyl]-4-yl]methyl]-4 (3H)-quinazolinone] registered an IC50 of 50 nM.
To `CCCCc1nc2ccc(C3CC4C(O3)ON(c3ccccc3)C4c3ccccc3)cc2c(=O)n1Cc1ccc(-c2ccccc2-c2nnn[nH]2)cc1` (stereo not drawn) [Example 10, (3α, 3aβ, 5β, 6aβ)-2-Butyl-6-(hexahydro-2,3-diphenylfuro[3,2-d]isoxazol-5-yl)-3-[[2'-(1H-tetrazol-5-yl)[1,1'-biphenyl]-4-yl]methyl]-4(3H)-quinazolinone] belongs 76 nM; to `CCCCc1nc2ccc(C3CC4C(c5ccc(C)cc5)=NOC4O3)cc2c(=O)n1Cc1ccc(-c2ccccc2-c2nnn[nH]2)cc1` (stereo not shown) [Example 12], 100 nM.
Then `CCCCc1nc2ccc(C3CC4C(O3)ON3C4CCC3(C)C)cc2c(=O)n1Cc1ccc(-c2ccccc2-c2nnn[nH]2)cc1` (stereo not shown) [Example 14], with 31.9 nM.
